Assay results published in patent US11970463B2, “Compounds and their use” (ASTRAZENECA AB, priority 2021, dated 2024).
In brackets after ≈: the same amount, converted by molar mass. Like-named read-outs stand apart in the source and are kept apart here.

What was measured:
[1] = biological target: hERG (Homo sapiens (Human), UniProt Q12809); test: hERG assay (Test D), SyncroPatch 384PE patch clamp, hERG-expressing CHO cells; assay type: cell-based; settings: rt
[2] = Solubility (Test F), McIlvaine buffer pH 6.5; assay type: physicochemical; settings: 25 °C, pH 6.5, aqueous buffer, thermodynamic from solid, McIlvaine buffer pH 6.5, 25° C., 24 to 72 h, theoretical maximum 200 μM
[3] = biological target: T1, Human NLRP3 (Homo sapiens (Human), UniProt Q96P20)
T1 sequence (Q96P20 whole entry): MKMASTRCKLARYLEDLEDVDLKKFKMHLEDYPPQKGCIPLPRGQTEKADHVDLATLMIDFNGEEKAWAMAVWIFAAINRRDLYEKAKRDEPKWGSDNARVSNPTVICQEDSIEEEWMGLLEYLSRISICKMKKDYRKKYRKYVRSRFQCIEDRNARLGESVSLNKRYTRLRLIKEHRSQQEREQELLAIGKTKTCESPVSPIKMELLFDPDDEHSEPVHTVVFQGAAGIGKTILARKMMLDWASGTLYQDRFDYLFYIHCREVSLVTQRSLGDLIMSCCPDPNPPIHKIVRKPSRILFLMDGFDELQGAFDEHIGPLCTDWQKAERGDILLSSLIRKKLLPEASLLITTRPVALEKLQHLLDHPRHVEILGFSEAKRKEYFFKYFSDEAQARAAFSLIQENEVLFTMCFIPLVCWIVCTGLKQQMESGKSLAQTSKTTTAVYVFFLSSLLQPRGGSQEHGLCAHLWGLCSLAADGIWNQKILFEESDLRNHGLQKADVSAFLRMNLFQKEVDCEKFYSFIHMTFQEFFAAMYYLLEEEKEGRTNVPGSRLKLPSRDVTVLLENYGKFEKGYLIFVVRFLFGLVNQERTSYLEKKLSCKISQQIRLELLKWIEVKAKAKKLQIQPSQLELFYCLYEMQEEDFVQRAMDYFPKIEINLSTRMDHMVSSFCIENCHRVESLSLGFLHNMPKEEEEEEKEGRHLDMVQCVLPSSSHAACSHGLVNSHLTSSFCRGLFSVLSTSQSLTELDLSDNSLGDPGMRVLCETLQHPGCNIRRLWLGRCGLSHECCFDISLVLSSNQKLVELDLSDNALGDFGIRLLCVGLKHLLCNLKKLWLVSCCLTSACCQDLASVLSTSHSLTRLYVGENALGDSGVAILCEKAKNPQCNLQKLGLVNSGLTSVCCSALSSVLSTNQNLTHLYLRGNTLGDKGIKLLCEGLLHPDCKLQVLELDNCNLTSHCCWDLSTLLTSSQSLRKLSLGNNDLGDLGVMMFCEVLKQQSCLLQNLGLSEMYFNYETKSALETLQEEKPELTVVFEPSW

[4] = biological target: T1, Human NLRP3; settings: Test C IC50, IL-1β release, THP-1 cells, LPS 2 μg/mL 24 h, BzATP 1 mM
[5] = biological target: T1, Human NLRP3; test: Human NLRP3 speck formation assay (Test A), nigericin triggered ASC-speck formation in ASC-GFP reporter monocytes
[6] = Solubility (Test E); assay type: physicochemical
[7] = test system: IL-1β production; test: LPS/ATP test in mice, peritoneal IL-1β by ELISA; assay type: in vivo, BALB/cAJcl mice; settings: Mus musculus, LPS/ATP i.p.; for inhibition at 1 mg/kg: 1 mg/kg orally; for inhibition at 3 mg/kg: 3 mg/kg orally
[8] = disodium hydrogenphosphate-citric acid (McIlvaine) buffer

Sequence of hERG (Q12809 whole entry): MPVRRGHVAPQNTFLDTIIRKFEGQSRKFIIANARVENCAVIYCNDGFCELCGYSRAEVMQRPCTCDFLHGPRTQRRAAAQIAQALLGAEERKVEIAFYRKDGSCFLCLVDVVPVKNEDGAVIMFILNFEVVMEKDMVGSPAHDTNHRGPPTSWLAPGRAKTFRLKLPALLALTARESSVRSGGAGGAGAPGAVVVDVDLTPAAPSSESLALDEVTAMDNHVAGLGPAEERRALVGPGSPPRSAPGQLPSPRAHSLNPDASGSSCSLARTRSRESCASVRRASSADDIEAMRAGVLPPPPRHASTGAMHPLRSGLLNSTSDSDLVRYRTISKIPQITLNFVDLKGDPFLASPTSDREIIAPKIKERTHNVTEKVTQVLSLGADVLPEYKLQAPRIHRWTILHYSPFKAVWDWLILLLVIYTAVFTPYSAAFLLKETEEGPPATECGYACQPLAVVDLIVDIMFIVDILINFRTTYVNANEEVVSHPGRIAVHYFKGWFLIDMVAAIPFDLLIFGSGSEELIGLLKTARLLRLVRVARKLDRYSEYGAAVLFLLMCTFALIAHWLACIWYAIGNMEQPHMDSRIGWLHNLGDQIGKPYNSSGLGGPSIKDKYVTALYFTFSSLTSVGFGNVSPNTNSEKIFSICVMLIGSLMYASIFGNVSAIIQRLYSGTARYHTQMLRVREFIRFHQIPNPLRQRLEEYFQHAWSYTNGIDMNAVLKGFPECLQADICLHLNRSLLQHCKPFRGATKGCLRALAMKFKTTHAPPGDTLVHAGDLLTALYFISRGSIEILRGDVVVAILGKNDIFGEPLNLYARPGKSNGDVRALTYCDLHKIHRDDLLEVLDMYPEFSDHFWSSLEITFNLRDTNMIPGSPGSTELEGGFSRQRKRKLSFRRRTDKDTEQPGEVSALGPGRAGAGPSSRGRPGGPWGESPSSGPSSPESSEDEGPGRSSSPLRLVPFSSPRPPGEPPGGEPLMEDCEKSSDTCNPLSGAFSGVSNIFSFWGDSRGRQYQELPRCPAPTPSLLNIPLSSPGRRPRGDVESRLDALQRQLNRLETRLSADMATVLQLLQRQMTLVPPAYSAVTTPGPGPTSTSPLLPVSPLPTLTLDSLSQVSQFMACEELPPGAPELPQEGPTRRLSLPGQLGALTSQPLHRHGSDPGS

Structure (SMILES): Oc1cc(C(F)(F)F)ccc1-c1nnc(N[C@@H]2CCCC[C@H]2O)c2ccccc12 [Example 24, 2-[4-[[(1R,2R)-2-hydroxycyclohexyl]amino]phthalazin-1-yl]-5-(trifluoromethyl)phenol]
- IC50 [1]: 17000 nM
- solubility [2, 8]: 7.9 µg/mL (≈ 19.6 µM)
- IC50 [3]: 9 nM
- IC50 [4]: 5 nM
- EC50 [5]: 38 nM
- solubility [6]: 148 µM (≈ 59.7 µg/mL)

Structure (SMILES): Oc1cc(C(F)(F)F)ccc1-c1nnc(N[C@H]2CC[C@@H](O)C2)c2cnccc12 [Example 83, 2-[4-[[(1S,3R)-3-hydroxycyclopentyl]amino]pyrido[3,4-d]pyridazin-1-yl]-5-(trifluoromethyl)phenol]
- IC50 [1]: > 40000 nM
- solubility [2, 8]: 4.7 µg/mL (≈ 12 µM)
- IC50 [3]: 38 nM
- IC50 [4]: 20 nM
- EC50 [5]: 129 nM
- solubility [6]: 47 µM (≈ 18.3 µg/mL)

Structure (SMILES): Oc1cc(C(F)(F)F)ccc1-c1nnc(N[C@H]2CCCC[C@H]2O)c2ccccc12 [Example 25, 2-[4-[[(1S,2R)-2-hydroxycyclohexyl]amino]phthalazin-1-yl]-5-(trifluoromethyl)phenol]
- IC50 [1]: 7400 nM
- solubility [2, 8]: 1.8 µg/mL (≈ 4.46 µM)
- IC50 [3]: 36 nM
- IC50 [4]: 8 nM
- EC50 [5]: 80 nM
- solubility [6]: 3 µM (≈ 1.21 µg/mL)

Structure (SMILES): OC[C@@H](O)CNc1nnc(-c2c(O)cc(C(F)(F)F)cc2F)c2ccccc12 [Example 7, (2S)-3-[[4-[2-fluoro-6-hydroxy-4-(trifluoromethyl)phenyl]phthalazin-1-yl]amino]propane-1,2-diol]
- IC50 [1]: > 40000 nM
- solubility [2, 8]: 70.3 µg/mL (≈ 177 µM)
- IC50 [3]: 47 nM
- IC50 [4]: 22 nM
- inhibition at 1 mg/kg [7]: 46%
- inhibition at 3 mg/kg [7]: 95%
- EC50 [5]: 180 nM
- solubility [6]: 582 µM (≈ 231 µg/mL)

Structure (SMILES): CC(C)(O)CNc1nnc(-c2ccc(C(F)(F)F)cc2O)c2ccncc12 [Example 70, 2-[4-[(2-hydroxy-2-methyl-propyl)amino]pyrido[3,4-d]pyridazin-1-yl]-5-(trifluoromethyl)phenol]
- IC50 [1]: > 40000 nM
- solubility [2, 8]: 17.7 µg/mL (≈ 46.8 µM)
- IC50 [3]: 26 nM
- IC50 [4]: 10 nM
- inhibition at 3 mg/kg [7]: 98%
- EC50 [5]: 67 nM
- solubility [6]: 5 µM (≈ 1.89 µg/mL)

Structure (SMILES): C[C@]1(O)CCC[C@@H](Nc2nnc(-c3ccc(C(F)(F)F)cc3O)c3ccncc23)C1 [Example 62, 2-[4-[[(1R,3S)-3-hydroxy-3-methyl-cyclohexyl]amino]pyrido[3,4-d]pyridazin-1-yl]-5-(trifluoromethyl)phenol]
- IC50 [1]: > 40000 nM
- solubility [2, 8]: 25.7 µg/mL (≈ 61.4 µM)
- IC50 [4]: 6 nM
- inhibition at 3 mg/kg [7]: 71%
- EC50 [5]: 60 nM
- solubility [6]: 120 µM (≈ 50.2 µg/mL)

Structure (SMILES): Oc1cc(C(F)(F)F)ccc1-c1nnc(N[C@@H]2CCC[C@@H]2O)c2ccccc12 [Example 19, 2-[4-[[(1R,2S)-2-hydroxycyclopentyl]amino]phthalazin-1-yl]-5-(trifluoromethyl)phenol]
- IC50 [1]: 23000 nM
- solubility [2, 8]: 10.6 µg/mL (≈ 27.2 µM)
- IC50 [3]: 20 nM
- IC50 [4]: 5 nM
- EC50 [5]: 26 nM
- solubility [6]: 171 µM (≈ 66.6 µg/mL)

Structure (SMILES): Oc1cc(OC(F)(F)F)ccc1-c1nnc(N[C@@H]2CCC[C@H](O)C2)c2cnccc12 [Example 48, 2-[4-[[(1R,3S)-3-hydroxycyclohexyl]amino]pyrido[3,4-d]pyridazin-1-yl]-5-(trifluoromethoxy)phenol]
- IC50 [1]: > 40000 nM
- solubility [2, 8]: 80.4 µg/mL (≈ 191 µM)
- IC50 [3]: 14 nM
- IC50 [4]: 4 nM
- EC50 [5]: 29 nM
- solubility [6]: 326 µM (≈ 137 µg/mL)

Structure (SMILES): OC[C@@H](O)CNc1nnc(-c2c(O)cc(Cl)cc2F)c2ccccc12 [Example 9, (2S)-3-[[4-(4-chloro-2-fluoro-6-hydroxy-phenyl)phthalazin-1-yl]amino]propane-1,2-diol]
- solubility [2, 8]: 67.3 µg/mL (≈ 185 µM)
- IC50 [4]: 11 nM
- inhibition at 3 mg/kg [7]: 77%
- EC50 [5]: 164 nM

Structure (SMILES): Oc1cc(C(F)(F)F)c(F)cc1-c1nnc(N[C@@H]2CCC[C@H](O)C2)c2cnccc12 [Example 53, 4-fluoro-2-[4-[[(1R,3S)-3-hydroxycyclohexyl]amino]pyrido[3,4-d]pyridazin-1-yl]-5-(trifluoromethyl)phenol]
- solubility [2, 8]: 62.5 µg/mL (≈ 148 µM)
- IC50 [4]: 7 nM
- inhibition at 3 mg/kg [7]: 65%

Structure (SMILES): C[C@]1(O)CC[C@@H](Nc2nnc(-c3ccc(C(F)(F)F)cc3O)c3ccncc23)C1 [Example 39, 2-[4-[[(1R,3S)-3-hydroxy-3-methyl-cyclopentyl]amino]pyrido[3,4-d]pyridazin-1-yl]-5-(trifluoromethyl)phenol]
- solubility [2, 8]: 10.2 µg/mL (≈ 25.2 µM)
- IC50 [3]: 18 nM
- IC50 [4]: 7 nM
- inhibition at 3 mg/kg [7]: 58%
- EC50 [5]: 59 nM
- solubility [6]: 48 µM (≈ 19.4 µg/mL)

Structure (SMILES): Oc1cc(Cl)cc(F)c1-c1nnc(N[C@@H]2CCCC[C@H]2O)c2cnccc12 [Example 57, 5-chloro-3-fluoro-2-[4-[[(1R,2R)-2-hydroxycyclohexyl]amino]pyrido[3,4-d]pyridazin-1-yl]phenol]
- IC50 [1]: > 40000 nM
- solubility [2, 8]: 36.9 µg/mL (≈ 94.9 µM)
- IC50 [4]: 5 nM
- inhibition at 1 mg/kg [7]: 42%
- inhibition at 3 mg/kg [7]: 87%
- EC50 [5]: 17 nM
- solubility [6]: 596 µM (≈ 232 µg/mL)

Structure (SMILES): Oc1cc(C(F)(F)F)ccc1-c1nnc(N[C@@H]2CCC[C@H](O)C2)c2cnccc12 [Example 41, 2-[4-[[(1R,3S)-3-hydroxycyclohexyl]amino]pyrido[3,4-d]pyridazin-1-yl]-5-(trifluoromethyl)phenol]
- solubility [2, 8]: 8.6 µg/mL (≈ 21.3 µM)
- inhibition at 1 mg/kg [7]: 94%
- inhibition at 3 mg/kg [7]: 99%

Structure (SMILES): Oc1cc(Cl)cc(F)c1-c1nnc(N[C@@H]2CCC[C@H](O)C2)c2cnccc12 [Example 46, 5-chloro-3-fluoro-2-[4-[[(1R,3S)-3-hydroxycyclohexyl]amino]pyrido[3,4-d]pyridazin-1-yl]phenol]
- IC50 [1]: > 40000 nM
- solubility [2, 8]: > 77.8 µg/mL
- IC50 [4]: 3 nM
- inhibition at 1 mg/kg [7]: 23%
- inhibition at 3 mg/kg [7]: 65%
- EC50 [5]: 37 nM
- solubility [6]: 941 µM (≈ 366 µg/mL)

Structure (SMILES): C[C@@]1(O)CCC[C@@H](Nc2nnc(-c3ccc(C(F)(F)F)cc3O)c3ccncc23)C1 [Example 61, 2-[4-[[(1R,3R)-3-hydroxy-3-methyl-cyclohexyl]amino]pyrido[3,4-d]pyridazin-1-yl]-5-(trifluoromethyl)phenol]
- IC50 [1]: 34000 nM
- solubility [2]: 64 µg/mL (≈ 153 µM)
- IC50 [4]: 7 nM
- inhibition at 3 mg/kg [7]: 97%
- EC50 [5]: 29 nM
- solubility [6]: 389 µM (≈ 163 µg/mL)

Structure (SMILES): Oc1cc(C(F)(F)F)ccc1-c1nnc(N[C@@H]2CCCC[C@@H]2O)c2ccccc12 [Example 23, 2-[4-[[(1R,2S)-2-hydroxycyclohexyl]amino]phthalazin-1-yl]-5-(trifluoromethyl)phenol]
- IC50 [1]: 21000 nM
- solubility [2, 8]: 4.4 µg/mL (≈ 10.9 µM)
- IC50 [3]: 31 nM
- IC50 [4]: 14 nM
- EC50 [5]: 156 nM
- solubility [6]: 0.4 µM (≈ 0.161 µg/mL)

Structure (SMILES): Cc1ccc2c(-c3ccc(C(F)(F)F)cc3O)nnc(NC[C@H](O)CO)c2c1 [Example 14, (2S)-3-[[4-[2-hydroxy-4-(trifluoromethyl)phenyl]-7-methyl-phthalazin-1-yl]amino]propane-1,2-diol]
- solubility [2, 8]: 56.3 µg/mL (≈ 143 µM)
- IC50 [4]: 5 nM
- inhibition at 3 mg/kg [7]: 75%
- EC50 [5]: 18 nM
- solubility [6]: 135 µM (≈ 53.1 µg/mL)

Structure (SMILES): Oc1cc(C(F)(F)F)c(F)cc1-c1nnc(N[C@@H]2CCCC[C@H]2O)c2cnccc12 [Example 54, 4-fluoro-2-[4-[[(1R,2R)-2-hydroxycyclohexyl]amino]pyrido[3,4-d]pyridazin-1-yl]-5-(trifluoromethyl)phenol]
- solubility [2, 8]: 45.7 µg/mL (≈ 108 µM)
- IC50 [4]: 4 nM
- inhibition at 3 mg/kg [7]: 55%

Structure (SMILES): Oc1cc(C(F)(F)F)ccc1-c1nnc(N[C@H]2CCC[C@H]2O)c2ccccc12 [Example 21, 2-[4-[[(1S,2R)-2-hydroxycyclopentyl]amino]phthalazin-1-yl]-5-(trifluoromethyl)phenol]
- IC50 [1]: 19000 nM
- solubility [2, 8]: 14.5 µg/mL (≈ 37.2 µM)
- IC50 [3]: 36 nM
- IC50 [4]: 8 nM
- EC50 [5]: 105 nM
- solubility [6]: 71 µM (≈ 27.6 µg/mL)

Structure (SMILES): Oc1cc(C(F)(F)F)ccc1-c1nnc(N[C@@H]2CC[C@@H](O)C2)c2ccccc12 [Example 16, 2-[4-[[(1R,3R)-3-hydroxycyclopentyl]amino]phthalazin-1-yl]-5-(trifluoromethyl)phenol]
- IC50 [1]: 22000 nM
- solubility [2, 8]: 23.9 µg/mL (≈ 61.4 µM)
- IC50 [3]: 30 nM
- IC50 [4]: 20 nM
- EC50 [5]: 54 nM

Structure (SMILES): C[C@]1(O)C[C@@H](Nc2nnc(-c3ccc(C(F)(F)F)cc3O)c3ccccc23)C1 [Example 37, 2-(4-(((1s,3s)-3-hydroxy-3-methylcyclobutyl)amino)phthalazin-1-yl)-5-(trifluoromethyl)phenol]
- IC50 [1]: 29000 nM
- IC50 [3]: 32 nM
- EC50 [5]: 339 nM

Structure (SMILES): CC(C)(O)CNc1nnc(-c2c(O)cc(C(F)(F)F)cc2F)c2ccncc12 [Example 74, 3-fluoro-2-[4-[(2-hydroxy-2-methyl-propyl)amino]pyrido[3,4-d]pyridazin-1-yl]-5-(trifluoromethyl)phenol]
- solubility [2, 8]: 12.1 µg/mL (≈ 30.5 µM)
- IC50 [4]: 18 nM
- inhibition at 3 mg/kg [7]: 68%
- EC50 [5]: 204 nM
- solubility [6]: 17 µM (≈ 6.74 µg/mL)

Structure (SMILES): Oc1cc(C(F)(F)F)cc(F)c1-c1nnc(N[C@@H]2CCCC[C@H]2O)c2cnccc12 [Example 55, 3-fluoro-2-[4-[[(1R,2R)-2-hydroxycyclohexyl]amino]pyrido[3,4-d]pyridazin-1-yl]-5-(trifluoromethyl)phenol]
- IC50 [1]: > 40000 nM
- solubility [2, 8]: 8.8 µg/mL (≈ 20.8 µM)
- IC50 [4]: 6 nM
- inhibition at 3 mg/kg [7]: 91%
- EC50 [5]: 38 nM
- solubility [6]: 529 µM (≈ 223 µg/mL)
